Laboratory results reported in ChEMBL document CHEMBL1124142, “N6-[2-(3,5-dimethoxyphenyl)-2-(2-methylphenyl)ethyl]adenosine and its uronamide derivatives. Novel adenosine agonists with both high affinity and high selectivity for the adenosine A2 receptor” (J Med Chem, 1988).

What was measured:
[1] = target: T1, Adenosine A2 receptor (Rattus norvegicus, UniProt P29276+P30543)
[2] = target: T2, Adenosine receptor A1 (Rattus norvegicus, UniProt P25099); test: biochemical
T2 sequence (P25099 whole entry): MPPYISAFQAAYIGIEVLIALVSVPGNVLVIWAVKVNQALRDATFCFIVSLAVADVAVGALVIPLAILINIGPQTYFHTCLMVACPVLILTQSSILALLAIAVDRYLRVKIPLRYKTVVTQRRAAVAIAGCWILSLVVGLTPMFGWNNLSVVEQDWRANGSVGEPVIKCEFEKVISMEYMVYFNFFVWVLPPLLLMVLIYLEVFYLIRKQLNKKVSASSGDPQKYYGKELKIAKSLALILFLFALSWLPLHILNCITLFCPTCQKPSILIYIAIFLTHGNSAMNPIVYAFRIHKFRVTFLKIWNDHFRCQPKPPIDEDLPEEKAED
Description: Binding affinity at adenosine A1 receptor from rat brain membranes by [3H]N6-cyclohexyladenosine displacement.

[3] = target: T1, Adenosine A2 receptor; test: Binding affinity at adenosine A2 receptor from rat striatal membranes by [3H]NECA displacement.

SMILES	Ki [1]	Ki [2]	Ki [3]
OC[C@H]1O[C@@H](n2cnc3c(NCc4cccc5ccccc45)ncnc32)[C@H](O)[C@@H]1O	0.0094 µM	–	–
COc1cc(OC)cc(C(CNc2ncnc3c2ncn3C2O[C@H](C(=O)NC3CC3)[C@@H](O)[C@H]2O)c2ccccc2C)c1 (some centres not stated)	–	0.232 µM	0.0087 µM
COc1cc(OC)cc(C(CNc2ncnc3c2ncn3C2O[C@H](CO)[C@@H](O)[C@H]2O)c2c(C)cccc2C)c1 (some centres not stated)	0.0195 µM	0.14 µM	–
COc1cc(OC)cc(C(CNc2ncnc3c2ncn3[C@@H]2O[C@H](CO)[C@@H](O)[C@H]2O)c2ccccc2C)c1 (single isomer, unassigned)	0.0031 µM	0.118 µM	–
COc1cc(OC)cc(C(CNc2ncnc3c2ncn3[C@@H]2O[C@H](CO)[C@@H](O)[C@H]2O)c2ccccc2C)c1 (single isomer, unassigned; (+))	0.0062 µM	0.188 µM	–
COc1cc(OC)cc(C(CNc2ncnc3c2ncn3[C@@H]2O[C@H](CO)[C@@H](O)[C@H]2O)c2ccccc2C)c1 (stereo in doubt; 16)	0.0044 µM	0.142 µM	–

Other lines, results leading:

Ki [1]	Ki [2]	Ki [3]	SMILES
0.116 µM	–	–	Nc1nc(Nc2ccccc2)nc2c1ncn2[C@@H]1O[C@H](CO)[C@@H](O)[C@H]1O
0.006 µM	0.0026 µM	–	OC[C@H]1OC(n2cnc3c(NCC(c4cccc(Cl)c4)c4cccc(Cl)c4)ncnc32)[C@H](O)[C@@H]1O (some centres not stated)
0.019 µM	0.061 µM	–	OC[C@H]1OC(n2cnc3c(NCC(c4ccccc4)c4c(Cl)cccc4Cl)ncnc32)[C@H](O)[C@@H]1O (some centres not stated)
–	0.0184 µM	–	OC[C@H]1OC(n2cnc3c(NCC(c4ccccc4)c4cc(Cl)cc(Cl)c4)ncnc32)[C@H](O)[C@@H]1O (some centres not stated)
0.062 µM	0.229 µM	–	Cc1cccc(C)c1C(CNc1ncnc2c1ncn2C1O[C@H](CO)[C@@H](O)[C@H]1O)c1ccccc1 (some centres not stated)
0.0188 µM	0.0093 µM	–	Cc1cccc(C(CNc2ncnc3c2ncn3C2O[C@H](CO)[C@@H](O)[C@H]2O)c2cccc(C)c2)c1 (some centres not stated)
–	0.207 µM	0.0056 µM	CCNC(=O)[C@H]1OC(n2cnc3c(NCC(c4cc(OC)cc(OC)c4)c4ccccc4C)ncnc32)[C@H](O)[C@@H]1O (some centres not stated)
–	1.01 µM	0.043 µM	CNC(=O)[C@H]1OC(n2cnc3c(NCC(c4cc(OC)cc(OC)c4)c4ccccc4C)ncnc32)[C@H](O)[C@@H]1O (some centres not stated)
0.0061 µM	0.0302 µM	–	COc1cc(OC)cc(C(CNc2ncnc3c2ncn3C2O[C@H](CO)[C@@H](O)[C@H]2O)c2ccccc2)c1 (some centres not stated)
